The source of these data is patent publication US20100055071A1, “Anti-Viral Compounds” (priority 2006, published 2010).

The test deals with HCV replication in ET (Huh-lucubineo-ET) cell line. The test is described as follows: Replicon Assay (HCV replicon luciferase, ET cell line). Type of test: cell-based. The settings on record: Hepatitis C virus; tested at 10 μM; ET (Huh-lucubineo-ET) replicon cells; luciferase activity measured 48-72 hours later; relative to no compound control. The procedure: A cell line, ET (Huh-lucubineo-ET) was used for screening of compounds of the present invention for inhibiting HCV replication. The ET cell line was stably transfected with RNA transcripts harboring a I389luc-ubi-neo/NS3-3′/ET; replicon with firefly luciferase-ubiquitin-neomycin phosphotransferase fusion protein and EMCV-IRES driven NS3-5B polyprotein containing the cell culture adaptive mutations (E1202G; T1280I; K1846T) (Krieger at al, 2001 and unpublished). The ET cells were grown in DMEM (Dulbeco's Modified Eagle's Medium), supplemented with 10% fetal calf serum, 2 mM Glutamine, Penicillin (100 IU/mL)/Streptomycin (100 μg/mL), 1× nonessential amino acids, and 250 μg/mL G418 (“Geneticin”). They were all available through Life Technologies (Bethesda, Md.). The cells were plated at 0.5-1.0×10^4 cells/well in the 96 well plates and incubated for 24 hrs before adding testing compounds. Then the compounds were added to the cells to achieve a final concentration of 0.1 nM to 50 μM and a final DMSO concentration of 0.5%. Luciferase activity were measured 48-72 hours later by adding a lysis buffer and the substrate (Catalog number Glo-lysis buffer E2661 and Bright-Glo luciferase system E2620 Promega, Madison, Wis.). Cells should not be too confluent during the assay. Percent inhibition of replication was plotted relative to no compound control. Under the same condition, cytotoxicity of the compounds was determined using cell proliferation reagent, WST-1 (Roche, Germany). The compounds showing antiviral activities, but no significant cytotoxicities were chosen to determine EC50 and TC50. For these determinations, a 10 point 2-fold serial dilution for each compound was used, which spans a concentration range of 1000 fold. EC50 and similarly TC50 values were calculated by fitting % inhibition at each concentration to the following equation:
% inhibition=100%/[(IC50/[I])^b+1]
where b is Hill's coefficient.
In some preferred embodiments compounds of Formula I will have a % inhibition of at least 20% when tested at 10 μM. In other embodiments the compounds of Formula I will have a % inhibition of at least 50% when tested at 10 μM.
For orientation: In antiviral work, replicon cells carry a viral genome segment that copies itself.
By inhibition is commonly meant the percentage by which the read-out fell short of the control. The compound `O=C(Nc1ccc(-c2ccc([C@@H]3CCCN3C(=O)OCc3ccccc3)cc2)cc1)C1CC1` (stereo in doubt) [Compound 4026, 2-[4′-(Cyclopropanecarbonyl-amino)-biphenyl-4-yl]-pyrrolidine-1-carboxylic acid benzyl ester] had an inhibition at 10 µM of 47.6%. For `O=C(NCc1ccc(-c2ccc3nc([C@@H]4CCCN4C(=O)OCc4ccccc4)[nH]c3c2)cc1)C1CC1` [Compound 4038, (S)-2-(6-{4-[(Cyclopropanecarbonyl-amino)-methyl]-phenyl}-1H-benzoimidazol-2-yl)-pyrrolidine-1-carboxylic acid benzyl ester], the inhibition at 10 µM was 97%. The same measure for `O=C(NC1CC1)c1ccc(-c2ccc3nc([C@@H]4Cc5ccccc5N4C(=O)OCc4ccccc4)[nH]c3c2)cc1` [Compound 4010, (S)-2-[6-(4-Cyclopropylcarbamoyl-phenyl)-1H-benzoimidazol-2-yl]-2,3-dihydro-indole-1-carboxylic acid benzyl ester]: 96.8%; for `O=C(NC1CC1)c1ccc(-c2ccc3[nH]c([C@@H]4CSC(c5ccncc5)N4C(=O)OCc4ccccc4)nc3c2)cc1` (stereo in doubt) [Compound 4006, (S)-4-[5-(4-Cyclopropylcarbamoyl-phenyl)-1H-benzoimidazol-2-yl]-2-pyridin-4-yl-thiazolidine-3-carboxylic acid benzyl ester]: 99.8%. Consider `O=C(Nc1cccc(-c2ccc([C@@H]3CCCN3C(=O)OCc3ccccc3)cc2)c1)C1CC1` (stereo in doubt) [Compound 4009, 2-[3′-(Cyclopropanecarbonyl-amino)-biphenyl-4-yl]-pyrrolidine-1-carboxylic acid benzyl ester], for which the inhibition at 10 µM turned out to be 31.7%. The same measure for `O=C(Nc1ccc(-c2ccc3nc([C@@H]4CCCN4C(=O)OCc4ccccc4)[nH]c3c2)cc1)C1CC1` [Compound 4058, (S)-2-{6-[4-(Cyclopropanecarbonyl-amino)-phenyl]-1H-benzoimidazol-2-yl}-pyrrolidine-1-carboxylic acid benzyl ester]: 97.9%.
